{"source": "patent US10966990B2", "about": "“Midazolam in flexible bags” (InfoRLife SA, priority 2018, dated 2021)", "key": {"[1]": {"details": "neutral pH; cited from earlier work"}, "[2]": {"details": "cited from earlier work"}, "[3]": {"assay": "solubility study of midazolam base in aqueous solution (pH-dependent)", "type": "physicochemical", "details": "midazolam 2 mg/mL in a solution of 0.9% NaCl", "method": "The solubility of midazolam is less than 0.1 mg/mL at neutral pH and it increases considerably in acidic media. A solubility study has been performed to evaluate the use of midazolam base in the proposed formulation. Since the solubility of midazolam is pH-dependent, the purpose of this study was to evaluate the pH value at which midazolam becomes soluble in aqueous solution. Midazolam at a concentration of 2 mg/mL is soluble in a solution of 0.9% NaCl when the pH reaches a value of about 3.2 pH. The solubility increases at lower pHs. The desired pH of the formulation is about from about 2.5 to about 3.5, preferably 2.8 to 3.2 and more preferably about pH 3. Sufficient acid is added to the solution to achieve the desired pH. Any pharmaceutically acid may be used. Preferably the acid is a pharmaceutically acceptable mineral acid, most preferably hydrochloric acid. If necessary a pharmaceutically acceptable base may be used to raise the pH if needed. The preferred bases are pharmaceutically acceptable inorganic bases such as sodium hydroxide and potassium hydroxide. Sodium hydroxide is the preferred base."}}}
{"smiles": "Cc1ncc2n1-c1ccc(Cl)cc1C(c1ccccc1F)=NC2", "note": "[Midazolam]", "values": [{"measurement": "solubility of midazolam", "setting": "[1]", "result": "less than 0.1 mg/mL"}, {"measurement": "storage of bag", "setting": "[2]; isotonic saline IV bag, room temperature", "result": "can be stored overnight at room temperature"}, {"measurement": "useful life", "setting": "[2]; midazolam in lactate Ringer's solution in IV bag", "result": 4, "unit": "h"}, {"measurement": "pH value at which midazolam becomes soluble", "setting": "[3]", "result": "about 3.2 pH"}]}
